Test results from PMC6110523 (Biochemistry, 2018).

Target: HER2 (Homo sapiens, UniProt P04626)
Assay: DiscoverX scanELECT competition binding at […]

Sequence of HER2 (P04626 720-987 limits assumed): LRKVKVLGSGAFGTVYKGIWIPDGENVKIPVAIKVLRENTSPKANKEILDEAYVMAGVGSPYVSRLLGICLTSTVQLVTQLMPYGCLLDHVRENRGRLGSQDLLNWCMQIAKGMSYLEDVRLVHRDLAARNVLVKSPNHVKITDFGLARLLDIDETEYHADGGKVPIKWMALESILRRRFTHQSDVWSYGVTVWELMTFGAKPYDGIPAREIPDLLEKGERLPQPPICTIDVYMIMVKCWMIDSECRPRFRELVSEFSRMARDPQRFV

CS(=O)(=O)CCNCc1ccc(-c2ccc3ncnc(Nc4ccc(OCc5cccc(F)c5)c(Cl)c4)c3c2)o1 [lapatinib]
% control at 1 μM: 0
